pEC50, pIC50: −log10 of the molar value. In brackets after ≈: the same amount, converted by molar mass. Activity calls are given as the source filed them. The calls are words filed in the database; no cut-off is given here.

The nature of data set [1]: Induction of ROS generation in CHOK1 cells at 10 uM using DCFH-DA by fluorescence assay relative to control. It counts as cell-based, Cricetulus griseus. Particulars: chinese hamster, cho-k1, 10 µM.
The nature of data set [2]: Cytotoxicity against human Caco2 cells assessed as decrease in cell viability after 48 hrs by MTT assay. It counts as functional, cell-based. Particulars: Caco-2, 48 h. On the technique in general: Tetrazolium assays rely on reduction of a dye to a coloured formazan, in cell work by metabolically active cells.
Data set [3] can be described thus: Antioxidant activity assessed as DPPH radical scavenging activity after 30 mins by spectrophotometric analysis. It counts as functional. A general note: The DPPH test is a chemical assay of radical scavenging.
Data set [4] deals with HepG2. The experiment in a line: Induction of ROS generation in human HepG2 cells at 1 uM using DCFH-DA by fluorescence assay relative to control. It is filed as functional.
A short description of data set [5]: Aqueous solubility of the compound in sodium phosphate buffer at pH 6.8 after 90 mins by shake flask method. It is filed as physicochemical.
Data set [6] concerns HT-29. The experiment in a line: Induction of ROS generation in human HT-29 cells at 1 uM using DCFH-DA by fluorescence assay relative to control. It is filed as functional.
Data set [7] is described as follows: Solubility of the compound in ethanol. It is filed as physicochemical.
In data set [8] the test system is HT-29. The data set is described as follows: Induction of ROS generation in human HT-29 cells at 10 uM using DCFH-DA by fluorescence assay relative to control. It counts as functional.
A short description of data set [9]: Cytotoxicity against human HepG2 cells assessed as decrease in cell viability after 48 hrs by MTT assay. It counts as functional, cell-based. The conditions noted are these: HepG2, 48 h.
Data set [10] is described as follows: Solubility of the compound in dimethyl sulfoxide. It is filed as physicochemical.
Data set [11] in a line: Chemical stability of the compound sodium phosphate buffer at pH 6.8 after 24 hrs by LC-MS analysis. It is filed as physicochemical. The conditions noted are these: pH 6.8, 24 h.
Data set [12] in a line: Cytotoxicity against human HT-29 cells assessed as decrease in cell viability after 48 hrs by MTT assay. It is filed as functional, cell-based. Particulars: HT-29, 48 h.
Data set [13] is described as follows: Cytotoxicity against human EAhy926 cells assessed as decrease in cell viability after 48 hrs by MTT assay. It counts as toxicity, cell-based, EA.hy 926. Particulars: EA.hy926 cells.
Data set [14] in a line: Induction of ROS generation in CHOK1 cells at 1 uM using DCFH-DA by fluorescence assay relative to control. It is filed as cell-based, Cricetulus griseus. The conditions noted are these: chinese hamster, cho-k1, 1 µM.
A short description of data set [15]: Solubility of the compound in 2-methyl-THF. It is filed as physicochemical.
The nature of data set [16]: Solubility of the compound in dimethylformamide. It counts as physicochemical.
Data set [17] is described as follows: Solubility of the compound in ethyl acetate. It counts as physicochemical.
Data set [18] is described as follows: Solubility of the compound in acetone. It counts as physicochemical.
For data set [19], the system named is EA.hy 926. The experiment in a line: Induction of ROS generation in human EAhy926 cells at 10 uM using DCFH-DA by fluorescence assay relative to control. It is filed as functional.
A short description of data set [20]: Solubility of the compound in methanol. It is filed as physicochemical.
Data set [21] deals with Caco-2. The data set is described as follows: Induction of ROS generation in human Caco2 cells at 1 uM using DCFH-DA by fluorescence assay relative to control. It counts as functional.
Data set [22] can be described thus: Aqueous solubility of the compound in sodium phosphate buffer at pH 6.8 after 24 hrs by shake flask method. It counts as physicochemical.
The nature of data set [23]: Cytotoxicity against CHOK1 cells assessed as decrease in cell viability after 48 hrs by MTT assay. The conditions noted are these: Chinese hamster, CHO-K1 cells. It is filed as toxicity, cell-based, Cricetulus griseus.
Data set [24] has as its system HepG2. The data set is described as follows: Induction of ROS generation in human HepG2 cells at 10 uM using DCFH-DA by fluorescence assay relative to control. It is filed as functional.
In data set [25] the test system is Caco-2. The experiment in a line: Induction of ROS generation in human Caco2 cells at 10 uM using DCFH-DA by fluorescence assay relative to control. It counts as functional.
The subject of data set [26] is EA.hy 926. The experiment in a line: Induction of ROS generation in human EAhy926 cells at 1 uM using DCFH-DA by fluorescence assay relative to control. It is filed as functional.
Data set [27] in a line: Cytotoxicity against human EAhy926 cells assessed as cell viability at 100 uM after 48 hrs by MTT assay relative to control. It counts as toxicity, cell-based, EA.hy 926. The conditions noted are these: EA.hy926 cells, read-out: Activity.
The test system of data set [28] is HepG2. The experiment in a line: Cytotoxicity against human HepG2 cells assessed as change in cell morphology after 48 hrs. It is filed as functional, cell-based.

Turning to `COc1cc(/C=C/C(=O)/C=C(/C=C/c2ccc(O)c(OC)c2)NCCCO)ccc1O`, the Activity in [1] was 89.9%; in data set [4], 90%; in [6], 98.8%; in data set [8] it was 98.8%; in data set [14], 90.4%; in data set [19] it was 102.2%. Besides, the Activity amounted to 93.4% in data set [21], 101.5% in data set [24], 91% in data set [25] and 114.3% in [26]. Further, the pIC50 (in general, −log10 of the IC50, conventionally taken in molar units) is 4.12 in data set [2], < 4.00 in data set [9] and < 4.00 in [12]. Moreover, the pEC50 (commonly −log10 of the EC50, conventionally taken in molar units) in data set [3] was 4.56. The thermodynamic solubility (commonly solubility found after equilibrating the solid with the medium) at 1.5 h in data set [5] amounted to 25.4 µM (≈ 10.8 µg/mL). Further, the solubility result in [7] was “Soluble”; in data set [10], “Soluble”; in data set [15], “Insoluble”; in data set [16], “Soluble”; in [17], “Insoluble”; in data set [18], “Insoluble”. Also, in data set [20], the solubility entry was “Soluble”. For the same compound, in data set [11], the Stability result was “Stable”. The half-inhibitory concentration (IC50) (in general, the midpoint of a concentration-inhibition curve) at 48 h in data set [13] is > 100 µM; in [23] it was 88.5 µM. In data set [22], this compound returned a solubility (thermodynamic) at 24 h of 56.3 µM (≈ 24 µg/mL).
For `COCCNC(=C\C(=O)/C=C/c1ccc(O)c(OC)c1)/C=C/c1ccc(O)c(OC)c1`, the Activity was determined as 84.4% in data set [1]; 83.8% in data set [4]; 86.5% in [6]; 92.3% in data set [8]; 94% in data set [14]; 121.3% in [19]. Further, the Activity came to 105% in data set [21], 66.6% in data set [24], 75.6% in [25] and 126.2% in data set [26]. Moreover, the pIC50 in data set [2], in data set [9] and in [12] was < 4.00 each time. In addition, in data set [3], the pEC50 was 4.56. The compound also returned a solubility (thermodynamic) at 1.5 h in data set [5] of 16.7 µM (≈ 7.1 µg/mL). Besides, the solubility result in data set [7] is “Soluble”; in [10] it was “Soluble”; in data set [15], “Insoluble”; in data set [16], “Soluble”; in [17], “Insoluble”; in data set [18], “Insoluble”. Moreover, in [20], the solubility result was “Soluble”. Besides, in data set [11], the Stability result was “Stable”. The IC50 at 48 h is ≥ 100 µM in data set [13] and 63 µM in [23]. The viability at 48 h, 100 µM in data set [27] was found to be 50.9%. The compound also had a thermodynamic solubility at 24 h in data set [22] of 12.7 µM (≈ 5.4 µg/mL).
In the case of `COc1cc(/C=C/C(=O)/C=C(/C=C/c2ccc(O)c(OC)c2)NCCO)ccc1O`, the Activity in [1] was 90.9%; in [4], 86.3%; in data set [6] it was 95.8%; in [8], 102.7%; in [14], 93.5%; in data set [19], 102.4%. For the same compound, the Activity in [21] amounted to 103.4%; in data set [24], 91.2%; in [25] it was 96.6%; in data set [26], 113.3%. Besides, the pIC50 is 4.06 in data set [2], < 4.00 in data set [9] and < 4.00 in data set [12]. Further, in data set [3], the pEC50 was 4.55. This compound displayed a thermodynamic solubility at 1.5 h in [5] of 8.14 µM (≈ 3.35 µg/mL). Moreover, the solubility entry in [7] was “Soluble”; in data set [10] it was “Soluble”; in [15] it was “Insoluble”; in data set [16], “Soluble”; in [17], “Insoluble”; in [18], “Insoluble”. Further, the solubility entry in data set [20] was “Soluble”. Also, the Stability result in data set [11] is “Stable”. For the same compound, the IC50 at 48 h in [13] is > 100 µM; in data set [23], 87.5 µM. The same compound yielded a thermodynamic solubility at 24 h in [22] of 11.8 µM (≈ 4.85 µg/mL).
Turning to `O=C(/C=C(/C=C/c1ccc(O)cc1)NCCO)/C=C/c1ccc(O)cc1`, the Activity in data set [1] is reported as 85.7%; in data set [4], 82.7%; in [6] it was 94.9%; in data set [8] it was 90.6%; in data set [14], 93.4%; in data set [19], 99.3%. The Activity in data set [21] came to 98.1%; in [24], 83.6%; in [25], 87.1%; in data set [26] it was 108%. The negative-log IC50 (pIC50) was 4.24 in data set [2], 4.32 in data set [9] and 4.18 in [12]. Besides, the negative logarithm of the EC50 (pEC50) in data set [3] was < 3.70. The solubility (thermodynamic) at 1.5 h in [5] was determined as 38.7 µM (≈ 13.6 µg/mL). Also, the solubility result is recorded as “Soluble” in data set [7]; “Soluble” in data set [10]; “Insoluble” in data set [15]; “Soluble” in data set [16]; “Insoluble” in data set [17]; “Insoluble” in data set [18]. The solubility entry in data set [20] is given as “Soluble”. Besides, the Stability entry in data set [11] is recorded as “Stable”. Besides, the IC50 at 48 h in data set [13] stood at 50.2 µM; in data set [23] it was 66 µM. In data set [22], this compound showed a thermodynamic solubility at 24 h of 37.9 µM (≈ 13.3 µg/mL).
For `COc1cccc2c1C(=O)c1c(O)c3c(c(O)c1C2=O)C[C@@](O)(C(=O)CO)C[C@@H]3O[C@H]1C[C@H](N)[C@H](O)[C@H](C)O1` [DOXORUBICIN], the negative-log IC50 (pIC50) was 5.03 in [2], < 4.12 in [9] and 5.13 in data set [12]. Further, the half-maximal inhibitory concentration (IC50) at 48 h in [13] and in data set [23] was 4.2 µM each time. Moreover, the outcome in data set [28] was Active.
Consider `O=C(/C=C(/C=C/c1ccc(O)cc1)NCCCO)/C=C/c1ccc(O)cc1`, for which the Activity is 80.5% in [1]; 91.3% in [4]; 92.5% in [6]; 96.9% in [8]; 86.4% in [14]; 109.9% in [19]. The Activity is given as 94.1% in [21], 88.7% in [24], 91.7% in [25] and 93.3% in data set [26]. For the same compound, the figures for the pIC50 in data set [2], in [9] and in data set [12] were 4.50, 4.27 and 4.23, respectively. For the same compound, the pEC50 in [3] was 3.81. Further, the thermodynamic solubility at 1.5 h in [5] amounted to 137 µM (≈ 49.9 µg/mL). The solubility result in data set [7] is listed as “Soluble”; in data set [10], “Soluble”; in data set [15], “Insoluble”; in [16] it was “Soluble”; in data set [17], “Insoluble”; in data set [18], “Insoluble”. The solubility result in data set [20] is “Soluble”. Further, the Stability result in data set [11] is listed as “Stable”. The half-inhibitory concentration (IC50) at 48 h was found to be 57.3 µM in data set [13] and 39.1 µM in data set [23]. The solubility (thermodynamic) at 24 h in data set [22] came out at 128 µM (≈ 46.9 µg/mL).

The record behind these values is ChEMBL document CHEMBL3868619, “Synthesis and biological assessment of novel N-(hydroxy/methoxy)alkyl β-enaminone curcuminoids” (Bioorg Med Chem Lett, 2016).
